Results reported in US20130089570A1, “ORAL VACCINE CO[…] ANTIGEN AND A TOLL-LIKE RECEPTOR AGONIST” (Glaxo Smith Kline Biologicals S.A., priority 2010, published 2013).
Read-outs that look alike come from different tables or passages of the source. Marks after values point to notes of the source that are not given here.

System: A/Solomon Island virus (A/SI/3/2006)
Format: in vivo, BALB/c mice
Details: for IgA concentration in mucosal samples GeoMean, BAL / IgA concentration in mucosal samples GeoMean, Feces / IgA concentration in mucosal samples GeoMean, Nasal Wash / IgA concentration in mucosal samples GeoMean, Saliva / IgA concentration in mucosal samples GeoMean, Vaginal Wash: days 0 and 14, two weeks after second immunization
[1] = Table 1 study, dose of Ag 14 μg
[2] = Table 2 study, A/SI/3/2006 7.5 μg, adjuvant 1 μg

Compound | IgA concentration in mucosal samples GeoMean, BAL (Table 1 study, dose of Ag 7 μg) | IgA concentration in mucosal samples GeoMean, Feces (Table 1 study, dose of Ag 7 μg) | IgA concentration in mucosal samples GeoMean, Nasal Wash (Table 1 study, dose of Ag 7 μg) | IgA concentration in mucosal samples GeoMean, Saliva (Table 1 study, dose of Ag 7 μg) [ng/mL] | IgA concentration in mucosal samples GeoMean, Vaginal Wash (Table 1 study, dose of Ag 7 μg) | IgA concentration in mucosal samples GeoMean, BAL [1] [ng/mL] | IgA concentration in mucosal samples GeoMean, Feces [1] | IgA concentration in mucosal samples GeoMean, Nasal Wash [1] [ng/mL] | IgA concentration in mucosal samples GeoMean, Saliva [1] [ng/mL] | IgA concentration in mucosal samples GeoMean, Vaginal Wash [1] | IgA concentration in mucosal samples GeoMean, BAL [2] [ng/mL] | IgA concentration in mucosal samples GeoMean, Feces [2] [ng/mL] | IgA concentration in mucosal samples GeoMean, Nasal Wash [2] [ng/mL] | IgA concentration in mucosal samples GeoMean, Saliva [2] [ng/mL] | IgA concentration in mucosal samples GeoMean, Vaginal Wash [2] | IgA BAL levels compared to IM immunization (Table 2 study, Kruskal Wallis and Dunn's multiple comparison test) | IgA response in vaginal wash by adjuvantation (Table 2 study, vaginal wash)
CCCCCCCCCCC[C@H](CC(=O)N[C@H]1[C@H](OC[C@H](NC(=O)C[C@@H](CCCCCCCCCCC)OC(=O)CCCCCCCCC)C(=O)O)O[C@H](CO)[C@@H](OP(=O)(O)O)[C@@H]1OC(=O)C[C@@H](CCCCCCCCCCC)OC(=O)CCCCCCCCC)OC(=O)CCCCCCCCC [CRX527] | 7.43*** ng/mL | 48.40*** ng/mL | 11.88* ng/mL | 7.53 | 81.01*** ng/mL | 3.67 | 75.71*** ng/mL | 8.22 | 5.13 | 120.80*** ng/mL | 3.47 | 8.68 | 3.50 | 3.22 | 7.05 ng/mL | – | –
Flagellin | – | – | – | – | – | – | – | – | – | – | 4.04 | 14.56 | 4.00 | 2.69 | 9.93** ng/mL | significantly higher | highly increased the IgA response
